Test results published in paper PMC10384602 (Pharmaceuticals, 2023).

Key:
[1] = logD7.4 in octanol/buffer mixture; assay type: physicochemical; details: pH 7.4, room temperature
[2] = Radiochemical stability of the formulated product on standing at room temperature; assay type: physicochemical; details: after standing for 90 min at room temperature

Question: With `O=C(Cc1ccccc1)Nc1nnc(CCSCCc2nnc(N[11C](=O)Cc3ccccc3)s2)s1` [[^11C]BPTES] as the compound, how does the logD [1] read?
Answer: 3.59

Question: What about the “radiochemical purity after standing” value [2] of the same compound?
Answer: > 95%
